Reference: patent US12728156B2, “Tumor cell-derived exosomes and method of treating colorectal cancer” (REGENTS OF THE UNIVERSITY OF MINNESOTA, priority 2020, dated 2026)

Columns and labels:
[1] = system: CT26 and MC38 tumors; assay: Established tumor model, 5-FU and anti-4-1BB schedules; conditions: monotherapy
[2] = 5-FU toxicity evaluation (body weight, diarrhea score); assay type: in vivo, mice; conditions: monotherapy
Description: FIGS. 24A-24D show the side effects of different treatments. Related to FIG. 16. FIGS. 24A-24B show mouse body weight, which was measured on day 12, 24, and 32 during treatment. […] FIGS. 24C-24D show the results of a diarrhea assessment, which was performed at the endpoint of mice follow-up to evaluate the side effects on mouse intestine.
Toxicity is a primary concern for cancer treatments, especially in combination therapy. We took this into account by evaluating the side effects of each treatment.
We recorded animal body weight and diarrhea scores after treatments. Mice were weighed on day 12, 24, and 32 after treatment. The diarrhea score was assessed at the endpoint of each treatment by using a 4-point scoring system: 0=normal stool; 1=slight diarrhea (soft formed stool without perianal staining of the coat); 2=moderate diarrhea (unformed stool with moderate perianal staining of the coat); and 3=severe diarrhea (watery stool with severe perianal staining of the coat) (Song et al., 2013).

[3] = system: CT26 tumors; assay: Mass cytometry immune profiling of treated CT26 tumors; assay type: in vivo, mice
Description: FIGS. 18A-18I show the tumor immunological response to 5-FU and anti-4-1BB treatments in CT26 tumors. […] PD-L1, Ki-67, CD80, and CD86 expression were quantified in whole tumor tissue. […] See also FIGS. 25-27.
FIGS. 27A-27H show the tumor immunological response to 5-FU and anti-PD-1 treatments in CT26 tumors. Related to FIG. 18.
Tumor samples were collected and digested using standard flow cytometry procedure. A total of 3 million single cells were used for each mass cytometry staining. In brief, the single cell pellets were first incubated with Cell-ID Cisplatin with a final concentration of 5 μM for 5 min at RT to identify dead cells. Cells were then washed and blocked by Fc-receptor blocking solution. Cell membrane staining was then performed with metal-conjugated antibodies for 30 min at RT. After staining, cells were fixed and permeabilized. The intracellular staining antibodies were then added and incubated for 45 min at RT. Finally, cells were labeled with 1 ml 1,000× diluted 125 μM Cell-ID intercalator-Ir to stain all cells in MaxPar Fix and Perm Buffer overnight at 4° C. EQ Four Element Calibration Beads with the reference EQ passport P13H2302 were added to each staining tube right before data acquisition by a CyTOF 2 mass cytometer. The mass cytometry data were then normalized and exported for gating on alive single cells, which were then imported to the Cytobank software. A t-SNE analysis was performed with default parameters (perplexity, 30; iterations, 1,000) on all cell types in tumor samples.

[4] = system: T cells; assay: T cell depletion in naïve mice; assay type: in vivo
Description: FIGS. 23A-23D show the T cell depleting effects of 5-FU and anti-CD3 treatment. Related to FIGS. 14 and 16-18.
We tested the effects of 5-FU treatment and 5-FU and anti-4-1BB combination treatment on T cell depletion in vivo. Intraperitoneal administration of anti-CD3 treatment (clone: 17A2, BioXcell, 5 mg/kg every 3 days) was given to induce T cell depletion in mice. One dose of 5-FU (150 mg/kg) or 5-FU (150 mg/kg) and anti-4-1BB (5 mg/kg) combination treatment was given intraperitoneally in naïve mice. Mice were sampled on days 2, 4, 7, and 9 after treatment for quantifying T cells in lymph nodes, spleen, bone marrow, and blood circulation.

[5] = system: miR-424 levels in T-cells and DCs; assay: CT26 tumor cells co-cultured with naïve T-cells and DCs, miR-424 level; assay type: cell-based, mouse; conditions: co-culture with CT26 tumor cells; EV production blocked
Description: miR-424 levels were analyzed across different samples, including tumor cells, immune cells, and EVs (FIG. 3A). To determine whether EVs can be up-taken by T-cells and DCs, CT26-WT cell line-derived EVs were stained with Dio dye and incubated with mouse naïve T-cells and DCs. Images taken using confocal microscopy confirmed the presence of Dio labeled EVs inside the T-cells and DCs (FIG. 3B). Next, CT26 tumor cells were co-cultured with naïve T-cells and DCs, which lead to a significant increase in miR-424 levels in both T-cells and DCs (FIG. 3C). Importantly, this increase in miR-424 could be neutralized by blocking the production of EVs in the co-culture system using GW4869 (FIG. 3C). To determine whether this tumor-derived EVs were being engulfed by the immune cells, CD63-GFP transfected CT26 tumor cells were injected into mice to establish a subcutaneous tumor model. […] Next, we sought to determine whether these effects could be eliminated by knocking out miR-424 in tumors. To this end, T-cells and DCs were isolated from the spleens of healthy mice, and of mice with wild-type tumors or miR-424 knockout (KO) tumors using flow cytometry sorting. miR-424 level was measured in the sorted T-cells and DCs by qPCR. […] Next, to study the impact of EV miR-424 expression on T-cell co-stimulation, the Jurkat cell and Raji cell conjugation assays were used. […]

[6] = system: IL-2 production; assay: Jurkat-Raji conjugation system co-cultured with human CRC derived organoids; assay type: cell-based; conditions: EVs secretion blocked in the co-culture system
Description: miR-424 levels were analyzed across different samples, including tumor cells, immune cells, and EVs (FIG. 3A). To determine whether EVs can be up-taken by T-cells and DCs, CT26-WT cell line-derived EVs were stained with Dio dye and incubated with mouse naïve T-cells and DCs. Images taken using confocal microscopy confirmed the presence of Dio labeled EVs inside the T-cells and DCs (FIG. 3B). Next, CT26 tumor cells were co-cultured with naïve T-cells and DCs, which lead to a significant increase in miR-424 levels in both T-cells and DCs (FIG. 3C). Importantly, this increase in miR-424 could be neutralized by blocking the production of EVs in the co-culture system using GW4869 (FIG. 3C). To determine whether this tumor-derived EVs were being engulfed by the immune cells, CD63-GFP transfected CT26 tumor cells were injected into mice to establish a subcutaneous tumor model. […] To this end, T-cells and DCs were isolated from the spleens of healthy mice, and of mice with wild-type tumors or miR-424 knockout (KO) tumors using flow cytometry sorting. miR-424 level was measured in the sorted T-cells and DCs by qPCR. […]
The Jurkat-Raji cells conjugation system was used for understanding the impacts of human tumor organoid-derived EVs on co-stimulation as well. […] Concentration of IL-2 was quantified in the co-culture system.

## O=c1[nH]cc(F)c(=O)[nH]1 [5-FU, 5-fluorouracil]
[1]
  tumor growth and survival time: delayed tumor development
[2]
  side effects: severe body weight loss and diarrhea
[3]; 5-FU monotherapy and combination treatment
  frequency of MDSCs: decreased
[3]; 5-FU treatment
  CD80 expression and MDSCs in tumor tissue: upregulated CD80 expression and depleted MDSCs
  T-cell population in the tumor microenvironment: suppressed the T-cell population
[4]
  T cell depletion: depleted T cells in lymphatic organs, blood circulation, and bone marrow
[4]; after 5-FU treatment
  time to recovery of the T cell population: around 9 days

## O=C(/C=C/c1ccc(/C=C/C(=O)Nc2ccc(C3=NCCN3)cc2)cc1)Nc1ccc(C2=NCCN2)cc1 [GW4869]
[5]
  increase in miR-424 levels in T-cells and DCs: neutralized
[6]
  suppression of IL-2 production by organoids: neutralized
